The target of assay [1] is T1, Prostaglandin G/H synthase 2 (Homo sapiens) (UniProt P35354).
T1 sequence (whole entry): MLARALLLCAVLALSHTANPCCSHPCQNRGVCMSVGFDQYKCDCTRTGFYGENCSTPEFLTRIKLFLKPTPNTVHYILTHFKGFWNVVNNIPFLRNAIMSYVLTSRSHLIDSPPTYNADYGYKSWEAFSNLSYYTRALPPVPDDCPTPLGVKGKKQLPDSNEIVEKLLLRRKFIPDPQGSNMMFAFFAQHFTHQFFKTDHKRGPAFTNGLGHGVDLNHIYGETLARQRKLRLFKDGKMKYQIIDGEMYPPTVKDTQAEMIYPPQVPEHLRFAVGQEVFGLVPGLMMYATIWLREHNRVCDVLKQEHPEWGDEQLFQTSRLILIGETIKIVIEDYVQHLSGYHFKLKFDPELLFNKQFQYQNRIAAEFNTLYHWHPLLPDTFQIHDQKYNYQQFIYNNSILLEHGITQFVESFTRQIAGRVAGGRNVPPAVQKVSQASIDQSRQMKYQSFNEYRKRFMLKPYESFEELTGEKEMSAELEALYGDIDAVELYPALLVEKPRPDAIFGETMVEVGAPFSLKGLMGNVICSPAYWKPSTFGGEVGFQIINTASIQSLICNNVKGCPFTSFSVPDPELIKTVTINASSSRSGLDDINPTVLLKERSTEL
Briefly: Inhibition of COX2 (unknown origin) at 20 uM relative to control.

The target of assay [2] is T2, Prostaglandin G/H synthase 2 (Ovis aries, UniProt P79208).
T2 sequence (P79208 whole entry): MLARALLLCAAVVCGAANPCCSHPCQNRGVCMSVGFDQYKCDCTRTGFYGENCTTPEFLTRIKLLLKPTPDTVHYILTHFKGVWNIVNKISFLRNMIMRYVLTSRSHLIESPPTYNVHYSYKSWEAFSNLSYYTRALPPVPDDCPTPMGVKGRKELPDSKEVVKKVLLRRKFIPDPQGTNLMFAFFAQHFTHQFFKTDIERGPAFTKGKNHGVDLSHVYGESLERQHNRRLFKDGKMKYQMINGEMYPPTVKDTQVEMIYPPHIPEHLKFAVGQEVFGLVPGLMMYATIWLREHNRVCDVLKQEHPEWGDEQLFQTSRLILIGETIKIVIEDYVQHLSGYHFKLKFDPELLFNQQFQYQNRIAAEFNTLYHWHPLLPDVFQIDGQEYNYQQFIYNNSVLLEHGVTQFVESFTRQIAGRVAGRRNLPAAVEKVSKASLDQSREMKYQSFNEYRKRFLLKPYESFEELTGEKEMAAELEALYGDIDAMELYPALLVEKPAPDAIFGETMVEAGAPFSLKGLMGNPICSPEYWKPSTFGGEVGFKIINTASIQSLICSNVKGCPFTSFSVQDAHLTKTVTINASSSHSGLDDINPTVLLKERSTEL
Nature of the assay: Inhibition of ovine COX2 using arachidonic acid as substrate by enzyme immunoassay.

Assay [3] deals with RAW264.7. Briefly: Antiinflammatory activity in mouse RAW264.7 cells assessed as inhibition of LPS-induced nitric oxide production. Type of assay: functional, cell-based.
The subject of another assay is BV-2. Briefly: Antiinflammatory activity in mouse BV2 cells assessed as inhibition of LPS-induced nitric oxide production. The assay is classed as functional, cell-based.
The target of assay [4] is T2, Prostaglandin G/H synthase 2. Briefly: Inhibition of ovine COX2 by EIA.
A short description of assay [5]: Inhibition of ovine 5-lox by EIA. Further details: species or system Ovis aries.
Assay [6] concerns the target T1, Prostaglandin G/H synthase 2 (Homo sapiens). Briefly: Inhibition of COX2 (unknown origin) at […] using arachidonic acid as substrate preincubated for 15 mins followed by arachidonic acid addition measured after 2 mins by ELISA relative to control.
Assay [7] relates to RAW264.7. Nature of the assay: Antiinflammatory activity in mouse RAW264.7 cells assessed as inhibition of nitric oxide production. Type of assay: functional, cell-based.
The next assay has as its system THP-1. Briefly: Antiinflammatory activity against human THP1 cells assessed as inhibition of LPS induced TNF-alpha at 100 uM preincubated for 30 mins followed by LPS stimulation measured after 24 hrs by ELISA relative to control. The assay is classed as functional. On the technique in general: ELISA stands for enzyme-linked immunosorbent assay.
Another assay deals with Interleukin-1 beta (Homo sapiens, UniProt P01584). Nature of the assay: Inhibition of IL1-beta (unknown origin).
Sequence of Interleukin-1 beta (P01584 117-269 limits assumed): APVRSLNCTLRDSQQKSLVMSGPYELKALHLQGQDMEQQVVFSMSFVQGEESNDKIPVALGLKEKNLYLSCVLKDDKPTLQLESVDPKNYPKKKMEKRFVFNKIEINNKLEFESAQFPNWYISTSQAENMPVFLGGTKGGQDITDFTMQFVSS
In assay [8] the target is Nitric oxide synthase, inducible (Homo sapiens, UniProt P35228). Nature of the assay: Inhibition of iNOS (unknown origin).
Sequence of Nitric oxide synthase, inducible (P35228 whole entry): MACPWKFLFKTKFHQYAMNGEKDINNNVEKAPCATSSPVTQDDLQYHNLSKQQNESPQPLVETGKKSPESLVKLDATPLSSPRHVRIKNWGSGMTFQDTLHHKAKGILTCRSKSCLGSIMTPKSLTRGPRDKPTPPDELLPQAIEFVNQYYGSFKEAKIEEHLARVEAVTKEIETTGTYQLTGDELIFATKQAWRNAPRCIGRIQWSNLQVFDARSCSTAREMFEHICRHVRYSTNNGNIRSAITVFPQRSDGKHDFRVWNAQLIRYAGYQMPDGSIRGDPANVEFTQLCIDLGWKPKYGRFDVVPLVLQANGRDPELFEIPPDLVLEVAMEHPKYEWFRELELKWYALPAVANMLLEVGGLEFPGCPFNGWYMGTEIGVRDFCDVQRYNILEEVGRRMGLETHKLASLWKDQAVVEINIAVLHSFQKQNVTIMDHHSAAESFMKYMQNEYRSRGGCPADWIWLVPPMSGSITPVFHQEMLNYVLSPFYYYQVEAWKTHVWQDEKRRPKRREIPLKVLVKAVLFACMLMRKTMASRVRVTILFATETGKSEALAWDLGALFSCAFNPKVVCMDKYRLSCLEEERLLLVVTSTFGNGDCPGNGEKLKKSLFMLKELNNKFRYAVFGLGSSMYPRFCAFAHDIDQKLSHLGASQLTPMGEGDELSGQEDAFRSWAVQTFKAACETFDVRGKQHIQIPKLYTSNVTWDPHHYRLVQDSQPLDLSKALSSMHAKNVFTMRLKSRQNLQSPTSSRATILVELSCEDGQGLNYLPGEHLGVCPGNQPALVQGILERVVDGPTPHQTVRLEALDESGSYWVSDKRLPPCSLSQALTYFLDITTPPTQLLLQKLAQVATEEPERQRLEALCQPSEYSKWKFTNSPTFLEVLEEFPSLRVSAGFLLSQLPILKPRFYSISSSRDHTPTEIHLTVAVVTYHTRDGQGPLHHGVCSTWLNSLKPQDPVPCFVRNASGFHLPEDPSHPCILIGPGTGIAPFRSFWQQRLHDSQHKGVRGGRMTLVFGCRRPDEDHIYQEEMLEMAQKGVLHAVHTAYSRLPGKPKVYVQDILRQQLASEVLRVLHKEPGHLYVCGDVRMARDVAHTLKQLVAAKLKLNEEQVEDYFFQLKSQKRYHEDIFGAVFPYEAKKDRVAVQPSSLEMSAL
The subject of assay [9] is RAW264.7. Briefly: Antiinflammatory activity in mouse RAW264.7 cells assessed as inhibition of LPS-induced nitric oxide production at 50 uM preincubated for 2 hrs followed by LPS stimulation measured after 24 hrs by Griess reagent based assay relative to control. The assay is classed as functional.
Assay [10] deals with RAW264.7. Briefly: Antiinflammatory activity in mouse RAW264.7 cells assessed as inhibition of LPS-induced nitric oxide production at 10 uM preincubated for 2 hrs followed by LPS stimulation measured after 24 hrs by Griess reagent based assay relative to control. The assay is classed as functional.
Assay [11] has as its system RAW264.7. Briefly: Antiinflammatory activity in mouse RAW264.7 cells assessed as inhibition of LPS-induced nitric oxide production at 20 uM preincubated for 2 hrs followed by LPS stimulation measured after 24 hrs by Griess reagent based assay relative to control. Type of assay: functional. (In general: The Griess reaction detects nitrite, a stable product of nitric oxide.)

The target in assay [12] is T2, Prostaglandin G/H synthase 2. Nature of the assay: Inhibition of ovine COX2.
The target in assay [13] is T3, Prostaglandin G/H synthase 1 (Ovis aries, UniProt P05979).
T3 sequence (P05979 whole entry): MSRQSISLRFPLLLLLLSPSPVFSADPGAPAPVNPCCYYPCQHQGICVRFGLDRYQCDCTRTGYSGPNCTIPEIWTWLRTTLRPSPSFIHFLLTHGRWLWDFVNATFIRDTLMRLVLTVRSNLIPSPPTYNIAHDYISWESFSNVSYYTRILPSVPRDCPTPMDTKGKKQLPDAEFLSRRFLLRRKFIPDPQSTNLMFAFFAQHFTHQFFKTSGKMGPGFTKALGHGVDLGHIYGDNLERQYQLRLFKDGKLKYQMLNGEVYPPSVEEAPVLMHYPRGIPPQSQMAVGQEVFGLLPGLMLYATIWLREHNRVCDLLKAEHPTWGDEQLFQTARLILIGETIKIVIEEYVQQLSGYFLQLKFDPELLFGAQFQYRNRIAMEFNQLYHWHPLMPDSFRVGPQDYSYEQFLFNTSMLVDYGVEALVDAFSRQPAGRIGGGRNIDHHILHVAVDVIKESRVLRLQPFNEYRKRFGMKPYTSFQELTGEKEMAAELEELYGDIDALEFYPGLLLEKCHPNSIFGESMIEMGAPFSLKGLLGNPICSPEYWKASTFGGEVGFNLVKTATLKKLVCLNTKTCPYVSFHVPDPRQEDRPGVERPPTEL
Briefly: Inhibition of ovine COX1.

Assay [14] has as its target Prostaglandin G/H synthase 2 (Homo sapiens) (UniProt P35354). Briefly: Inhibition of COX2 (unknown origin) at 0.01 mM using arachidonic acid as substrate preincubated for 15 mins followed by arachidonic acid addition measured after […] by ELISA relative to control.
In assay [15] the test system is RAW264.7. Nature of the assay: Antiinflammatory activity in mouse RAW264.7 cells assessed as inhibition of LPS-induced nitric oxide production after 24 hrs. Type of assay: functional, cell-based. The conditions noted are these: RAW264.7, 24 h.

Each structure is given as a SMILES string.

The inhibition is how much of the control response was suppressed. `CCCCCC(=O)/C=C/C=C\CCCCCCCC(=O)O` yielded an inhibition in assay [1] of 16.6%. By IC50 is commonly meant the concentration that inhibits the measured activity by half. As to `CCOC(=O)[C@H](CO)NC(=O)c1cccc(O)c1O`, the IC50 in assay [2] was 2.8 µM. On to `C=C1[C@@H]([C@@]2(C)[C@@H](O)CC(=O)C(C)(C)[C@@H]2[C@@H](O)C(=O)OC)CC[C@@]2(C)[C@H](C3=C[C@@H](O)CC3=O)CC(=O)C[C@]12O`, for which the results for the IC50 in the assay on RAW264.7 [3] and in the assay on BV-2 were 5.04 µM and 4.97 µM, respectively.

Take `CC(C)=CCC/C(C)=C/Cc1c(O)cc(O)c(C(=O)C(C)C)c1O`: the IC50 in [4] is 29.9 µM; in [5], 2.2 µM. In turn, `O=C(/C=C/CCc1ccc(O)cc1)CCc1ccc(O)cc1` returned an inhibition in [6] of 98.4%. In the case of `COc1cc2c(cc1C)C1=C(C)C(=O)OC1C(O)C2C` (stereo not drawn), the IC50 with RAW264.7 [7] worked out at 51.9 µM. Take `C[C@@H]1O[C@@H](Oc2c(-c3cc(O)c(O)c(O)c3)oc3cc(O)cc(O)c3c2=O)[C@H](O)[C@H](O)[C@H]1O`: the inhibition at 100 µM with THP-1 was 19.5%.

Turning to `C/C=C(\C)C(=O)O[C@H]1[C@H](OC(C)=O)[C@@]23C[C@@]1(O)O[C@H]1C[C@]4(C)C(=CC[C@H]4c4ccoc4)[C@](C)(C(=O)C[C@H]2C(C)C)C13` (stereo partly drawn), the IC50 (against Interleukin-1 beta; in assay [8]) was 7.8 µM in each case. As to `COc1cc(/C=C/c2ccccc2)c(C(=O)O)c(O)c1CC=C(C)C`, in the assay on RAW264.7 [9], the inhibition at 50 µM was found to be 40.9%. The inhibition at 10 µM in the assay with RAW264.7 [10] was 21.2%. The inhibition at 20 µM with RAW264.7 [11] is 30.6%. On to `CC(C)=CCCC(C(=O)O)C1CNC(=N)N1` (stereo not drawn), for which the IC50 stood at 830 µM in assay [12] and 300 µM in assay [13]. In assay [14], `CC1(C)NC(CCc2ccc(O)cc2)CC(=O)C1Cc1ccc(O)cc1` (stereo not drawn) showed an inhibition of 83.3%. For `C=CC(C)(CCC=C(C)C)c1c(O)cc2c(c1O)C(=O)C[C@@H](c1ccc(O)c(O)c1)O2` (stereo partly drawn), the IC50 with RAW264.7 [15] is 3.32 µM.

Values taken from ChEMBL document CHEMBL4406802, “Human disorders associated with inflammation and the evolving role of natural products to overcome” (Eur J Med Chem, 2019).
